Laboratory results as given in a melting point compilation (Tetko et al.; mined from patent text by program, amines drawn as free bases though some values may be those of a salt).

| melting point [°C] | SMILES |
| --- | --- |
| 85 | c1ccc(P(c2ccccc2)c2cccc3c2-c2c(cccc2P(c2ccccc2)c2ccccc2)OCCCO3)cc1 |
| 145 to 147 | Cc1nc2c(CN3CCOCC3)cc(Cl)nn2c1C(=O)c1ccc(Cl)cc1F |
| 103 to 105 | CCOC(=O)NC(C)CC(NC(=O)OCC)NC(=O)OCC (configuration not stated) |
| 116 to 118 | Cc1c(C(=O)Nc2ccc(OCC(C)(C)C)c(C#N)c2)cnn1-c1cccc(C(F)(F)F)c1 |
| 148 to 150 | O=Cc1c2ccccc2cc2ccc(Cl)cc12 |
| 192 | O=C(CCCCCOc1ccc2c(c1)[nH]c1ccccc12)NO |
| 139 to 141 | Clc1ccc(-c2nc3ccccc3n2-c2ccccc2)cc1 |
| 107 to 109 | O=S(=O)(/C=C/c1ccc(Cl)cc1)Nc1ccccc1Cl |
| 249 to 251 | c1ccc2[nH]c3c4ccccc4nc-3cc2c1 |
| 160 to 162 | Cc1cccc(Nc2cc(Nc3ccc(OCC(=O)N(CCO)CCO)cc3)ncn2)c1 |
| 78.3 to 79.8 | COC(=O)c1cc(CBr)cc(C2(C#N)CC2)c1 |
| 134 to 136 | O=C1OCc2c1cccc2[N+](=O)[O-] |
| 125 | O=S(=O)(NCc1cccnc1)c1ccc(Br)s1 |
| 160 to 162 | CC(=O)NC[C@H]1CN(c2ccc(N3CCC(n4cc(CO)nn4)CC3)c(F)c2)C(=O)O1 |
| 151 to 153 | CCOC(=O)c1cn(C(C)CCl)c2cc(Cl)c(F)cc2c1=O (configuration not stated) |
| 261 to 263 | N#Cc1ccc2nc3c(c(=O)n2c1)SCC3 |
| 172 to 175 | Cc1cnc(NC(=O)C(Cc2ccc(F)cc2)c2ccc(S(C)(=O)=O)cc2)cn1 (configuration not stated) |
| 207 to 208 | CC(=O)c1c(C)c(NC(=O)NC(C)(C)C)c(C)c2c1OCC2c1ccc(C(C)C)cc1 (configuration not stated) |
| 175 to 178 | COC(=O)c1ccc(OC)c(I)n1 |
| 127 to 128 | CCc1cc(SCc2cccc3oc(-c4ccc(C(F)(F)F)cc4)nc23)ccc1OCC(=O)O |
| 245 to 250 | Cc1cccc(C(=O)C2=C(O)C(=O)N(c3ccc(C)nn3)C2c2ccc(C(C)C)cc2)c1 (configuration not stated) |
| 148 to 151 | CCOC(=O)C1CCNC(=O)C1=O (configuration not stated) |

| melting point [°C] | SMILES |
| --- | --- |
| 176 to 178 | CC(=O)N1CCc2cc(S(=O)(=O)n3c(COC(C)(C)C(=O)O)cc4cc(C(F)(F)F)ccc43)ccc21 |
| 319 to 321 | CC(=O)Oc1ccc(-c2nc3c(N)nc(N)nc3nc2N)cc1 |
| 172 | CCCCCCN(CCCCCC)c1ccc(C=CC2=C(C#N)C(=C(C#N)C#N)OC2(C)C)s1 |
| 128 to 130 | CCCC(=O)c1ccc(C(=O)O)cn1 |
| 195 to 198 | O=C(O)c1cn(-c2ccc(F)cc2)c2c(F)c(N3CC4=C(CNC4)C3)c(F)cc2c1=O |
| 189 to 192 | COc1cc2c(cc1OC)[C@H]1CCCC[C@H]1N=C2c1ccc(C(C)=NO)cc1 |
| 223 to 224 | CC1(C)OC(=O)Nc2ccc(-c3cccc(-c4nccs4)c3)cc21 |
| 159 | O=C(NO)c1cnc(N2CCN(S(=O)(=O)c3ccc(C(=O)Nc4ccc(Cl)c(-c5ccccn5)c4)cc3Cl)CC2)nc1 |
| 180 to 182 | CC1(C)C=NC(C(NC(c2ccccc2)(c2ccccc2)c2ccccc2)C(=O)O)S1 (configuration not stated) |
| 283 to 285 | Cc1ccc2cccc(OCc3cccc(NC(=O)CN4C(=O)c5ccccc5C4=O)c3C)c2n1 |
| 160 to 172 | O=CC1c2cccc(Cl)c2C(C=O)c2cccc(Cl)c21 (configuration not stated) |
| 197 | COc1cc(C)cc(-c2nn(CC#N)cc2-c2cc(NC[C@H](C)O)nc(Cl)n2)c1 |
| 109 | C=CCCC(C#N)(C#N)Cc1ccc(C#N)cc1 |
| 153 to 155 | CCN1C(=O)C(C)(C)C(=O)N(C)c2cc(CN(CCn3ccc4oc(C)cc4c3=O)Cc3ccc(C=O)cc3)ccc21 |
| 186 to 187 | O=C(Nc1ccc(CN2CCOCC2)cc1)C1=Cc2cc(-c3ccccc3)ccc2CC1 |
| 50 to 52 | OCCC(CCS)c1ccncc1 (configuration not stated) |
| 70 | CCOc1c(C(=O)c2ccccc2)cnc2c1cnn2Cc1ccco1 |
| 267 to 269 | Nc1ncccc1-c1nc2ccc(-c3cn[nH]c3)nc2n1-c1ccc(CNC(=O)c2cccc(F)c2)cc1 |
| 263 to 264 | COc1cc2c3c([nH]c2c(Cl)c1Cl)C(=O)NCC3 |
| 88 | CC(C)CN(CC(C)C)S(=O)(=O)N[C@@H](Cc1ccc(Oc2nccc3cnccc23)cc1)C(=O)O |
| 82 to 84 | OC(CCCl)COc1ccc(Cl)c(Cl)c1 (configuration not stated) |
| 194 to 196 | CCOC(=O)c1nc(-c2ccc([N+](=O)[O-])cc2)[nH]c1-c1cccc(OC)c1 |

| melting point [°C] | SMILES |
| --- | --- |
| 237 to 239 | CNC(=O)NC(=O)C(CC1CCCC1)c1ccc(S(C)(=O)=O)c(C#N)c1 (configuration not stated) |
| 159 to 162 | CCSc1cc(C)nc(SCC)c1NC(=O)CSc1nc2cccc(S(C)(=O)=O)c2o1 |
| 225 to 235 | CCCCS(=O)(=O)NC(CNS(=O)(=O)c1cccc(C(=O)C2CCC3(CCNCC3)CC2)c1)C(=O)O (configuration not stated) |
| 205 to 206 | O=S1(=O)N=CN(C2CC2)c2ccc(F)c(F)c21 |
| 85 to 86 | CCC1Cc2ccc(C(C)C(=O)O)cc2C1=O (configuration not stated) |
| 94 | CC(C)(C)OC(=O)C(Nc1ccccc1)c1ccc(Cl)c(Cl)c1 (racemic) |
| 204 to 205 | CCn1ccc(=O)c(O)c1C |
| 163 to 165 | O=C1Nc2cc(Cl)ccc2Sc2ccccc21 |
| 46.5 to 49 | OCc1ccc(Cl)cc1Cc1ccccc1 |
| 138 to 139 | COc1ccc(S(=O)(=O)N2c3cc(F)ccc3-c3ccccc3C2C)cc1 (configuration not stated) |
| 236 to 248 | CNc1nc(-c2ccc3c(c2)NC(=O)CO3)c(-c2ccccc2)s1 |
| 185 to 186 | COC(=O)c1ccc(-c2nc(COc3ccc(C=O)cc3OC)c(C)o2)cc1 |
| 137 | O[C@]1(c2ccccc2)CCS[C@H]2CN(Cc3ccccc3)C[C@H]21 (racemic) |
| 153 to 155 | COc1c(N2CC[C@@H](C3(NCCO)CC3)C2)c(F)cc2c(=O)c(C(=O)O)cn([C@@H]3C[C@@H]3F)c12 |
| 194 | Nc1ccc2c(c1)NC(=O)C2 |
| 210 to 212 | CN(Cc1cc(C(F)(F)F)cc(C(F)(F)F)c1)C(=O)c1c(-c2ccc(F)cc2)c2ccc(=O)n(C)c2c(=O)n1C |
| 78 to 80 | CCOC(=O)C(=CNC1CC1)C(=O)c1cc(F)c(F)c(Cl)c1F |
| 160 to 162 | COc1ccc(SC(=C2NCCCS2)[N+](=O)[O-])cc1 |
| 110 to 111 | CCCC1CCC(C2CCC(OCCCO)CC2)CC1 (configuration not stated) |
| 140 to 143 | COC1=C(OC)C(=O)C2=C(CC(CCCCCCCC(N)=O)(C(N)=O)C2)C1=O |
| 142 | O=C(NCCCCCCCCCCCNC(=O)c1ccc(OC(F)(F)F)cc1)c1ccc(OC(F)(F)F)cc1 |
| 227 to 231 | Brc1c(OCc2nnn[nH]2)ccc2cc(-c3csc(-c4ccccc4)n3)ccc12 |

| melting point [°C] | SMILES |
| --- | --- |
| > 300 | COc1ccccc1-c1c(O)c2ccc(Cl)cc2[nH]c1=O |
| 144 to 145 | CCOC(=O)c1csc2cc(Oc3ccnc(N)n3)ccc12 |
| 187 to 188 | CCOC(=O)c1cnn2c(-c3ccc(C)c(C)c3)ccnc12 |
| 163 to 164 | CC(=O)NCc1ccc(CN2CCN(c3ccc(F)cc3)CC2)cc1N |
| 111 to 115 | COc1cccc(CN2CCc3cc(O)ccc3C2)c1OC |
| 285 to 287 | COc1cc2ncc(C#N)c(Nc3ccc4[nH]c(=O)sc4c3)c2cc1OC |
| 88 to 89 | COc1ccc(Cl)c(Oc2c(Cl)ncnc2Cl)c1 |
| 91 to 92 | CCCCSc1cc(SCCCC)c2ccc3c(SCCCC)cc(SCCCC)c4ccc1c2c43 |
| 102 to 104 | Cc1ccc(-c2ccccc2C(=O)NC(C)C#N)cc1 (configuration not stated) |
| 156 to 157 | CS(=O)(=O)c1ccc(-c2cnn(Cc3cccc([N+](=O)[O-])c3)c(=O)c2-c2ccc(F)cc2)cc1 |
| 168 | NC(=O)C(=O)NC(C(=O)OC(c1ccccc1)c1ccccc1)c1ccccc1 (configuration not stated) |
| 149 to 150 | CCCOc1ccccc1C(=O)Nc1ccccc1C(N)=O |
| 178 to 181 | Clc1cc(N2CCOCC2)nc(-n2cnc3ccccc32)n1 |
| 152 to 153 | O=C(NCCCCCCCNC(=O)c1ccc(OC(Cl)(Cl)Cl)cc1)c1ccc(OC(Cl)(Cl)Cl)cc1 |
| 91.9 to 93.4 | CCOC(=O)C(C)(C)Oc1ccc(CCCC(=O)NN(Cc2cccc(OC)c2)C(N)=O)cc1 |
| 70 to 72 | COC(=O)CCC(=O)c1cc(OC)ccc1OCC(O)CNC(C)(C)C (configuration not stated) |
| 81 to 82 | CCCCCCCCCCCCCCOC(=O)c1ccc(Cl)c(NC(=O)C(C(=O)c2ccccc2)N2C(=O)c3ccccc3C2=O)c1 (configuration not stated) |
| 184 to 186 | CN1Cc2ccccc2C(=O)c2cc(CC(=O)O)cc([N+](=O)[O-])c21 |
| 151 to 153 | COC(=O)Cc1nn(Cc2ccc(Br)cc2F)c(=O)c2ccccc12 |

| SMILES | melting point [°C] |
| --- | --- |
| CCc1cccc2c1N(CC(=O)N1CC3CCC(CC3)C1)C(=O)C(NC(=O)Nc1cccc(C)c1)N=C2c1ccccc1F (configuration not stated) | 163 to 168 |
| CP(C)(=O)COC(=O)c1cncn1C(c1ccccc1)c1ccccc1 | 174 |
| CCOC(=O)c1ccc2c(CCN)c[nH]c2c1 | 169 to 172 |
| N=C(N)NCCCCN[N+](=O)[O-] | 123 to 124 |
| COc1ccc(N(C(=O)CN2C(=O)C(CO)C(=O)N(c3ccccc3)c3ccccc32)C(C)C)cc1 (configuration not stated) | 136 to 139 |
| CN1C(=O)[C@@H](NC(=O)c2ccc(C(F)(F)F)cc2)N=C(c2ccccc2)c2ccccc21 | 125 to 127 |
| O=C(O)C(O)(c1ccccc1)c1ccc(Br)cc1 (racemic) | 125 to 126 |
| N#Cc1nn(-c2c(Cl)cc(C(F)(F)F)cc2Cl)c(N)c1S(=O)(=O)CC(F)(F)F | 157 |
| CCC1(CC)C(=O)N(c2ccc(C#N)c(C(F)(F)F)c2)C(=S)N1C | 126 to 127 |
| CSC(=NS(=O)(=O)N1CCCCC1)N1CC(c2ccccc2)C(c2ccc(Cl)cc2)=N1 (configuration not stated) | 192 to 194 |
| Cc1[nH]c(-c2ccccc2)c2c1C(c1ccccc1)=NCC(=O)N2 | 310 to 312 |
| CNC(=O)Oc1ccccc1C(=O)NC(Oc1ccccc1)C(Cl)(Cl)Cl (configuration not stated) | 138 to 141 |
